From the supplement of paper PMC10307832

Legend:
Experiment in all cases: relative viability (nuclei count vs DMSO), 5 days (fraction); higher = more cells survive
[1] = compound: COc1ccc(-c2ccc3c(N4CCOC[C@@H]4C)nc(N4CCOC[C@@H]4C)nc3n2)cc1CO [AZD8055] + NC(=O)Nc1cc(-c2cccc(F)c2)sc1C(=O)N[C@H]1CCCNC1 [AZD7762] (partner 0.2 µM)
Outline: (§1)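 One day after seeding in 1536-well plates, lung cancer cell lines were dosed by pin tool. Dosing was either single-drug or a fixed anchor-drug dose plus five library-drug doses (not always all listed) in √10 steps. After 5 days, nuclei were stained in one fix-and-stain step and counted on 4× images, and relative viability is the nuclei count of treated wells over that of vehicle wells, given as the median of duplicate plates.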

[2] = compound: COc1ccc(-c2ccc3c(N4CCOC[C@@H]4C)nc(N4CCOC[C@@H]4C)nc3n2)cc1CO [AZD8055] + Nc1nc2[nH]cc(CCc3ccc(C(=O)N[C@@H](CCC(=O)O)C(=O)O)cc3)c2c(=O)[nH]1 [Pemetrexed] (partner 0.2 µM)
Outline: as §1

[3] = compound: COc1ccc(-c2ccc3c(N4CCOC[C@@H]4C)nc(N4CCOC[C@@H]4C)nc3n2)cc1CO [AZD8055] + COc1cc2c(Oc3ccc(NC(=O)C4(C(=O)Nc5ccc(F)cc5)CC4)cc3F)ccnc2cc1OCCCN1CCOCC1 [Foretinib] (partner 0.25 µM)
Outline: as §1

[4] = compound: COc1ccc(-c2ccc3c(N4CCOC[C@@H]4C)nc(N4CCOC[C@@H]4C)nc3n2)cc1CO [AZD8055] + COc1cccc2cc(-c3nc([C@H]4CC[C@H](C(=O)O)CC4)n4ncnc(N)c34)[nH]c12 [OSI-027] (partner 0.5 µM)
Outline: as §1

| Cell Line | relative viability ([1]; first compound 0.03162 µM) | relative viability ([1]; first compound 0.1 µM) | relative viability ([1]; first compound 0.3162 µM) | relative viability ([1]; first compound 1 µM) | relative viability ([2]; first compound 0.03162 µM) | relative viability ([2]; first compound 0.1 µM) | relative viability ([2]; first compound 0.3162 µM) | relative viability ([2]; first compound 1 µM) | relative viability ([3]; first compound 0.01 µM) | relative viability ([3]; first compound 0.03162 µM) | relative viability ([3]; first compound 0.1 µM) | relative viability ([3]; first compound 0.3162 µM) | relative viability ([3]; first compound 1 µM) | relative viability ([4]; first compound 0.01 µM) | relative viability ([4]; first compound 0.03162 µM) | relative viability ([4]; first compound 0.1 µM) | relative viability ([4]; first compound 0.3162 µM) | relative viability ([4]; first compound 1 µM) | relative viability ([1]; first compound 0.01 µM) | relative viability ([2]; first compound 0.01 µM) |
| --- | --- | --- | --- | --- | --- | --- | --- | --- | --- | --- | --- | --- | --- | --- | --- | --- | --- | --- | --- | --- |
| HARA | 0.384 | 0.406 | 0.487 | 0.306 | 0.214 | 0.281 | 0.259 | 0.192 | 0.983 | 0.762 | 0.374 | 0.272 | 0.258 | 0.612 | 0.641 | 0.419 | 0.419 | 0.249 |  |  |
| NCI-H2126 | 1.07 | 0.902 | 0.587 | 0.508 | 0.622 | 0.649 | 0.579 | 0.401 | 1.32 | 1.05 | 0.91 | 0.575 | 0.593 | 0.762 | 0.743 | 0.717 | 0.528 | 0.449 | 1.03 | 0.693 |
| LXF-289 | 1.2 | 1.19 | 0.978 | 0.744 | 0.996 | 0.935 | 0.765 | 0.651 | 1.05 | 1.02 | 0.962 | 0.763 | 0.72 | 0.891 | 0.899 | 0.727 | 0.693 | 0.625 | 1.28 | 1.11 |
| NCI-H460 | 0.51 | 0.607 | 0.137 | 0.092 | 0.0565 | 0.0535 | 0.0755 | 0.0693 | 1.12 | 1.09 | 0.812 | 0.376 | 0.206 | 0.85 | 0.47 | 0.506 | 0.141 | 0.124 | 0.831 | 0.0514 |
| NCI-H1395 | 0.405 | 0.443 | 0.34 | 0.419 | 0.547 | 0.735 | 0.385 | 0.356 | 0.982 | 0.774 | 0.835 | 0.505 | 0.528 | 0.657 | 0.618 | 0.535 | 0.443 | 0.422 | 0.384 | 0.767 |
| NCI-H2170 | 0.733 | 0.502 | 0.293 | 0.226 | 0.288 | 0.255 | 0.24 | 0.248 | 1.07 | 1.04 | 0.868 | 0.451 | 0.397 | 0.665 | 0.701 | 0.624 | 0.386 | 0.392 | 1.04 | 0.287 |
